According to ChEMBL document CHEMBL3046490, “Evaluation of fungicides to control circular leaf spot of persimmon caused by Mycosphaerella nawae” (Crop Prot, 2011):
Converted amounts (≈) assume the structure as drawn.

What was measured:
Format in all cases: functional, organism-based
[1] = test system: Plurivorosphaerella nawae; assay: Antifungal activity against circular leaf spot causing Mycosphaerella nawae MY5 assessed as inhibition of mycelial growth on potato dextrose agar
[2] = test system: Plurivorosphaerella nawae; assay: Antifungal activity against circular leaf spot causing Mycosphaerella nawae MY1 assessed as inhibition of mycelial growth on potato dextrose agar
Zasmidium citrigriseum = assay: Antifungal activity against citrus greasy spot disease caused by Zasmidium citri assessed as inhibition of mycelial growth on potato dextrose agar
Monilinia fructicola = assay: Antifungal activity against Monilinia fructicola isolated from peach fields assessed as mycelial growth inhibition

SMILES | EC50 [1] | EC50 [2] | EC50 (Zasmidium citrigriseum) | EC50 (Monilinia fructicola)
CN(C)C(=S)SSC(=S)N(C)C [THIRAM] | 26.8 µg/mL (≈ 111 µM) | 13.8 µg/mL (≈ 57.4 µM) |  | 
CC(Cc1ccc(C(C)(C)C)cc1)CN1C[C@@H](C)O[C@@H](C)C1 (stereo not given in full) [FENPROPIMORPH] | 0.4 µg/mL (≈ 1.32 µM) | 0.2 µg/mL (≈ 0.659 µM) |  | 
CC(C)(C)C(O)(CCc1ccc(Cl)cc1)Cn1cncn1 (stereo not given) [TEBUCONAZOLE] | 0.7 µg/mL (≈ 2.27 µM) | 1.3 µg/mL (≈ 4.22 µM) |  | 
Cc1cc(C2CC2)nc(Nc2ccccc2)n1 [CYPRODINIL] | 52.4 µg/mL (≈ 233 µM) | 76.8 µg/mL (≈ 341 µM) |  | 
O=C1C2CC=CCC2C(=O)N1SC(Cl)(Cl)Cl (stereo not given) [CAPTAN] | > 100 µg/mL | > 100 µg/mL |  | 
COC(=O)N(OC)c1ccccc1COc1ccn(-c2ccc(Cl)cc2)n1 [PYRACLOSTROBIN] | 1.9 µg/mL (≈ 4.9 µM) | 1.6 µg/mL (≈ 4.13 µM) | 0.03 ppm | 0.04 ppm
N#Cc1c(Cl)c(Cl)c(Cl)c(C#N)c1Cl [CHLOROTHALONIL] | 17 µg/mL (≈ 63.9 µM) | 33.5 µg/mL (≈ 126 µM) |  | 
COC(=O)NC(=S)Nc1ccccc1NC(=S)NC(=O)OC [THIOPHANATE METHYL] | 1.7 µg/mL (≈ 4.96 µM) | 1.5 µg/mL (≈ 4.38 µM) |  | 
O=[N+]([O-])c1cc(C(F)(F)F)c(Cl)c([N+](=O)[O-])c1Nc1ncc(C(F)(F)F)cc1Cl [FLUAZINAM] | 50.6 µg/mL (≈ 109 µM) | 24 µg/mL (≈ 51.6 µM) |  | 
